Assay results taken from article PMC4207132 (Journal of Medicinal Chemistry, 2014).

Target: pVHL:EloB:EloC (VBC) complex (Homo sapiens, UniProt P40337)
Assay type: binding

Chain of pVHL:EloB:EloC (VBC) complex (Q15369 17-112): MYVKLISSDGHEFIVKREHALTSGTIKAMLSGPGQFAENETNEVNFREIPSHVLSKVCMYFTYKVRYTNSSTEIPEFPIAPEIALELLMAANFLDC
Chain of pVHL:EloB:EloC (VBC) complex (P40337 54-213): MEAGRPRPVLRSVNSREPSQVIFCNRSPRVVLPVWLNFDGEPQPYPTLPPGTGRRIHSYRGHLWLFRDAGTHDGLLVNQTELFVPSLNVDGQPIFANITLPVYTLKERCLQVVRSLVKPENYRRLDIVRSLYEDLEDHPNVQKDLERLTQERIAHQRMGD
Chain of pVHL:EloB:EloC (VBC) complex (Q15370 1-104, further chain): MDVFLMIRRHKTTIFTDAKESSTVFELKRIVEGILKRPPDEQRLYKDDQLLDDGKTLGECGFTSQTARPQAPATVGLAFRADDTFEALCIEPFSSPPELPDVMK

- increase in affinity compared to 5: ~20 fold
SMILES: CC(=O)N[C@H](C(=O)N1C[C@H](O)C[C@H]1C(=O)NCc1ccc(-c2scnc2C)cc1)C(C)(C)C [ligand 7, (2S,4R)-1-((S)-2-Acetamido-3,3-dimethylbutanoyl)-4-hydroxy-N-(4-(4-methylthiazol-5-yl)benzyl)pyrrolidine-2-carboxamide]
